Reference: US20230123334A1, “AMINO LIPID COMPOUND, PREPARATION METHOD THEREFOR, AND APPLICATION THEREOF” (SHENZHEN SHENXIN BIOTECHNOLOGY CO., LTD., priority 2020, published 2023)

tested on: HEK293 cells; experiment: Preliminary screening as DNA vectors, GFP transfection of HEK293 cells; format: cell-based; details: HEK293 cells; lipid/DOPE liposome with 75 ng plasmid DNA (psin-EGFP-IRES-Puro); number of cells expressing GFP divided by total number of nuclei (Hoechst)
Description: Cell line: HEK293 cells (ATCC CRL-1573™)
Medium: DMEM supplemented with 10% fetal bovine serum (Invitrogen)
Mode of screening: cell transfection on 96-well plates
Detection (readout): percentage of the number of GFP fluorescent cells relative to the total number of cells (the total number of cells was measured using nucleus dye Hoechst—see FIG. 2). Lipofectamine2000 (Invitrogen) was used as positive control, according to the manufacturer's instructions.
Method: an 8-channel pipette was used for sample addition. The contents shown were for a single well of a 96-well flat plate.
1. The compound (0.01 mmol) prepared in Example 1 was dissolved in 1 mL of anhydrous ethanol. After ultrasonically dissolved, 10 μL of the resultant amino lipid solution in ethanol was taken and mixed with 5 μL of DOPE solution in ethanol (0.01 m), and then to the obtained mixture was added 35 μL of 0.2M sodium acetate buffer (pH 5.6), and 50 μL of liposome solution was prepared by vortex at a constant rotating speed for 30 s. 4 μL was taken from the 50 μL liposome solution and added to 46 μL of 0.02M sodium acetate buffer (pH 5.6), and the final liposome solution was formed by vortex at a constant rotating speed for 30 s. 5 μL was taken from the final liposome solution and mixed with 75 ng plasmid DNA (psin-EGFP-IRES-Puro, Clontech) dissolved in 5 μL of 0.02 M sodium acetate buffer, and was allowed to stay at room temperature for 30 min to form a lipid/DNA transfection complex.
2. 10 μL of the lipid/DNA transfection complex was incubated at room temperature for 30 min, followed by addition of 90 μL of fresh resuspended cells (3-5×10^4 cells) and mixing with a pipette. 100 μL of cells+lipid/DNA complex was transferred to separate wells of a 96-well culture plate immediately, and placed in an incubator containing 5% CO2 at 37° C.
3. Hoechst33258 (Invitrogen) was added at a final concentration of 0.2 μg/mL to the cells 20 to 24 hours after initial cell transfection, and cultured in darkness at 37° C. for 15 min. Afterwards, the cells were washed once with a PBS solution, and then added with medium for culture for 20 to 24 h.
4. The cells were placed in a high-throughput confocal microscope (Molecular Devices ImageXpress), and four visual fields of the image of the cells were captured for each well, and images at three laser wavelengths were captured for each sample: bright field images of cells (FIG. 2(a) and FIG. 2(b)), Hoechst-staining images showing total nuclei (FIG. 2(c) and FIG. 2(d)) and GFP images showing success in transfection with the plasmid DNA and the expression of GFP (FIG. 2(e) and FIG. 2(f)). MetaXpress software was used to separately count the cells in the Hoechst-staining images and GFP images, and then the number of cells expressing GFP was divided by the total number of nuclei to give the absolute cell transfection efficiency. The absolute transfection efficiency was calculated as follows: […]

With `CCCCCCCCCCCCN(CCCCCCCCCCCC)c1nc(NCCCCCCCCCCC)nc(NCCN2CCOCC2)n1` [Compound N112N12D2] the “Absolute DNA transfection efficiency in HEK293 cells” value (shortened to “Absolute DNA transfection efficiency”) was 0.0%.

same assay, conditions: amino lipid/DOPE liposome with 75 ng plasmid DNA (psin-EGFP-IRES-Puro); number of GFP-expressing cells divided by total nuclei (Hoechst)

First: CCCCCCCCCCCSc1nc(NCCCN(C)C)nc(SCCCCCCCC)n1 [S8S11 D6]
Second: CCCCCCCCCCCCSc1nc(NCCCN(C)C)nc(SCCCCCCCC)n1 [S8S12 D6]
The “Absolute DNA transfection efficiency” value of the first is lower: 7.9% for the first, 12.6% for the second.

Compared with `CCCCCCCCCCCCCCCCCCNc1nc(NCCCN(C)C)nc(SCCCCCCC)n1` [S7N18 D6], `CCCCCCCCCCCCCCCNc1nc(NCCN(C)C)nc(SCCCCCCCCCC)n1` [S10N15 D1] is lower in “Absolute DNA transfection efficiency” value: 18.4% for the first, 4.8% for the second.

Compared with `CCCCCCCSc1nc(NCCN2CCN(C)CC2)nc(SCCCCCC)n1` [S6S7 D5], `CCCCCCCCSc1nc(NCCCN2CCN(C)CC2)nc(SCCCCCC)n1` [S6S8 D9] is higher in “Absolute DNA transfection efficiency” value: 5.7% for the first, 10.0% for the second.

Compared with `CCCCCCCCCCCSc1nc(NCCCCCCCCC)nc(NCCCN(C)C)n1` [S11N9 D6], `CCCCCCCCCCSc1nc(NCCCCCCCCC)nc(NCCN(C)C)n1` [S10N9 D1] is lower in “Absolute DNA transfection efficiency” value: 40.1% for the first, 7.1% for the second.

Compared with `CCCCCCCCCCCCCCCCCCNc1nc(NCC2CCN(C)CC2)nc(SCCCCCCCCCCCCCC)n1` [S14N18 D10], `CCCCCCCCCCCCCCCCCCSc1nc(NCCCCCCCCC)nc(NCC2CCN(C)CC2)n1` [S18N9 D10] is higher in “Absolute DNA transfection efficiency” value: 0.1% for the first, 4.5% for the second.

First: CCCCCCCCCCCCCCSc1nc(NCCCCCCCCCCCCC)nc(NCCCN2CCOCC2)n1 [S14N13 D8]
Second: CCCCCCCCCCCCCCCCNc1nc(NCCN2CCOCC2)nc(SCCCCCCCCCCCC)n1 [S12N16 D2]
The “Absolute DNA transfection efficiency” value of the first is higher: 0.3% for the first, 0.0% for the second.

First: CCCCCCCCCCCCCCSc1nc(NCCCN2CCN(C)CC2)nc(N(CCCCCCCCCCCC)CCCCCCCCCCCC)n1 [S14^2N12 D9]
Second: CCCCCCCCCCCCN(CCCCCCCCCCCC)c1nc(NCCN2CCN(C)CC2)nc(SCCCCCCCCCCC)n1 [S11^2N12 D5]
The “Absolute DNA transfection efficiency” value of the first is lower: 0.0% for the first, 0.1% for the second.

Going from `CCCCCCCCCCCCCCCSc1nc(NCCCCCCCCCCCCC)nc(NCCN(C)C)n1` [S15N13 D1] to `CCCCCCCCCCCCCCCCNc1nc(NCCN(C)C)nc(SCCCCCCCCCCCC)n1` [S12N16 D1], the “Absolute DNA transfection efficiency” value rises from 0.4% to 0.5%.

`CCCCCCCCCCCCCCCCNc1nc(NCCCN2CCOCC2)nc(SCCCCCCCCCCCCCCC)n1` [S15N16 D8] and `CCCCCCCCCCCCCCCCCCNc1nc(NCCN2CCOCC2)nc(SCCCCCCCCCCCC)n1` [S12N18 D2] are the same in “Absolute DNA transfection efficiency” value: 0.0% for the first, 0.0% for the second.

`CCCCCCCCCCCCSc1nc(NCC2CCN(C)CC2)nc(SCCCCCCC)n1` [S7S12 D10] and `CCCCCCCCCCCCNc1nc(NCC2CCN(C)CC2)nc(SCCCCCC)n1` [S6N12 D10] are the same in “Absolute DNA transfection efficiency” value: 21.3% for the first, 21.3% for the second.

Compared with `CCCCCCCCCCCSc1nc(NCCCCCCCCC)nc(NCCN2CCN(C)CC2)n1` [S11N9 D5], `CCCCCCCCCCSc1nc(NCCCCCCCC)nc(NCCCN2CCN(C)CC2)n1` [S10N8 D9] is lower in “Absolute DNA transfection efficiency” value: 20.5% for the first, 5.6% for the second.

Compared with `CCCCCCCSc1nc(NCCCCCC)nc(NCCCN(C)C)n1` [S7N6 D6], `CCCCCCCCSc1nc(NCCCCCCC)nc(NCCCN(C)C)n1` [S8N7 D6] is lower in “Absolute DNA transfection efficiency” value: 27.2% for the first, 8.5% for the second.

First: CCCCCCCCCCCCCCSc1nc(NCCCCCCC)nc(NCCN2CCCCC2)n1 [S14N7 D4]
Second: CCCCCCCCCCCCCCCSc1nc(NCCCCCCCC)nc(NCCN2CCCCC2)n1 [S15N8 D4]
The “Absolute DNA transfection efficiency” value of the first is higher: 3.7% for the first, 3.0% for the second.

Compared with `CCCCCCCCSc1nc(NCCN2CCCC2)nc(SCCCCCC)n1` [S6S8 D3], `CCCCCCCCCSc1nc(NCCN2CCCC2)nc(SCCCCCCCC)n1` [S8S9 D3] is higher in “Absolute DNA transfection efficiency” value: 2.8% for the first, 15.1% for the second.

First: CCCCCCCCCCCCCCCCCCNc1nc(NCCN2CCN(C)CC2)nc(SCCCCCCCCCCCCCCCC)n1 [S16N18 D5]
Second: CCCCCCCCCCCCCCCCCCSc1nc(NCCCCCCCCCCCCCCCC)nc(NCCN2CCCC2)n1 [S18N16 D3]
The “Absolute DNA transfection efficiency” value of the first is lower: 0.0% for the first, 0.1% for the second.

First: CCCCCCCCCCCCSc1nc(NCCN(C)C)nc(SCCCCCCC)n1 [S7S12 D1]
Second: CCCCCCCCCCCCCCCCCCSc1nc(NCCN(C)C)nc(SCCCCCCC)n1 [S7S18 D1]
The “Absolute DNA transfection efficiency” value of the first is higher: 8.2% for the first, 3.7% for the second.

Going from `CCCCCCCSc1nc(NCCN(C)C)nc(SCCCCCC)n1` [S6S7 D1] to `CCCCCCCCCSc1nc(NCCN(CC)CC)nc(SCCCCCCCC)n1` [S8S9 D7], the “Absolute DNA transfection efficiency” value rises from 0.5% to 29.3%.

Compared with `CCCCCCCCCCCCN(CCCCCCCCCCCC)c1nc(NCCCN2CCOCC2)nc(SCCCCCCCCCCC)n1` [S11^2N12 D8], `CCCCCCCCCCCCN(CCCCCCCCCCCC)c1nc(NCCN2CCN(C)CC2)nc(SCCCCCCC)n1` [S7^2N12 D5] is higher in “Absolute DNA transfection efficiency” value: 0.0% for the first, 0.2% for the second.

First: CCCCCCCCCSc1nc(NCCN2CCOCC2)nc(SCCCCCC)n1 [S6S9 D2]
Second: CCCCCCCCSc1nc(NCCCN2CCOCC2)nc(SCCCCCCC)n1 [S7S8 D8]
The “Absolute DNA transfection efficiency” value of the first is higher: 9.1% for the first, 3.7% for the second.

Going from `CCCCCCCCCCCCCCCCSc1nc(NCCCN2CCOCC2)nc(SCCCCCC)n1` [S6S16 D8] to `CCCCCCCCCCCCCCSc1nc(NCCN2CCOCC2)nc(SCCCCCC)n1` [S6S14 D2], the “Absolute DNA transfection efficiency” value rises from 0.0% to 11.1%.

First: CCCCCCCCCCCNc1nc(NCCCN2CCOCC2)nc(SCCCCCCCCC)n1 [S9N11 D8]
Second: CCCCCCCCCCCCNc1nc(NCCCN2CCOCC2)nc(SCCCCCCC)n1 [S7N12 D8]
The “Absolute DNA transfection efficiency” value of the first is higher: 26.8% for the first, 17.7% for the second.

Going from `CCCCCCCCCCCCCCCCCCSc1nc(NCCCCCCCCCCCCCCC)nc(NCCCN(C)C)n1` [S18N15 D6] to `CCCCCCCCCCCCCCCCCCNc1nc(NCCN(C)C)nc(SCCCCCCCCCCCCCCCC)n1` [S16N18 D1], the “Absolute DNA transfection efficiency” value rises from 0.0% to 0.3%.

Going from `CCCCCCCCCCCCCCCCCCNc1nc(NCCN2CCCCC2)nc(SCCCCCCCCCCCCCC)n1` [S14N18 D4] to `CCCCCCCCCCCCCCCCSc1nc(NCCCCCCCCCCCC)nc(NCCCN(C)C)n1` [S16N12 D6], the “Absolute DNA transfection efficiency” value rises from 0.7% to 2.7%.

Going from `CCCCCCCCCCCSc1nc(NCCCCCCC)nc(NCCN2CCCCC2)n1` [S11N7 D4] to `CCCCCCCCCSc1nc(NCCCCCC)nc(NCCN2CCCCC2)n1` [S9N6 D4], the “Absolute DNA transfection efficiency” value rises from 4.6% to 20.7%.

Compared with `CCCCCCCCCCCCNc1nc(NCCN(CC)CC)nc(SCCCCCCCCCC)n1` [S10N12 D7], `CCCCCCCCCCCCCCCNc1nc(NCCN(CC)CC)nc(SCCCCCCCCCC)n1` [S10N15 D7] is lower in “Absolute DNA transfection efficiency” value: 5.9% for the first, 1.7% for the second.

Compared with `CCCCCCCCCCCCCCCSc1nc(NCCCCCCCCC)nc(NCCN2CCN(C)CC2)n1` [S15N9 D5], `CCCCCCCCCCCCCCCCSc1nc(NCCCCCC)nc(NCCN2CCOCC2)n1` [S16N6 D2] is lower in “Absolute DNA transfection efficiency” value: 17.5% for the first, 16.5% for the second.

Compared with `CCCCCCCCCCSc1nc(NCCN(CC)CC)nc(SCCCCCCCC)n1` [S8S10 D7], `CCCCCCCCCCSc1nc(NCCN(CC)CC)nc(SCCCCCCC)n1` [S7S10 D7] is higher in “Absolute DNA transfection efficiency” value: 11.4% for the first, 20.2% for the second.

First: CCCCCCCCCCCCCCCCCCNc1nc(NCCN(CC)CC)nc(SCCCCCCCCC)n1 [S9N18 D7]
Second: CCCCCCCCCCCCNc1nc(NCCN2CCOCC2)nc(SCCCCCCCCCC)n1 [S10N12 D2]
The “Absolute DNA transfection efficiency” value of the first is higher: 6.0% for the first, 3.7% for the second.

Compared with `CCCCCCCCCCCCNc1nc(NCCN2CCOCC2)nc(SCCCCCCCC)n1` [S8N12 D2], `CCCCCCCNc1nc(NCCN2CCCCC2)nc(SCCCCCCC)n1` [S7N7 D4] is lower in “Absolute DNA transfection efficiency” value: 38.1% for the first, 11.3% for the second.
